In one assay the test system is Tgo exo^− polymerase. It counts as biochemical, Thermococcus species.
Assay [1] has as its system Klenow-fragment of Chy DNA pol I. The assay can be described thus: Primer extension with modified dNTPs, Chy Klenow polymerase. Format: biochemical, Carboxydothermus hydrogenoformans. Conditions: template NucT15.
For another assay, the target named is Vent exo^− polymerase (Thermococcus litoralis, UniProt P30317, D141A/DEL1082-1471/DEL495-1032/E143A). The assay is described as follows: Primer extension with modified dNTPs, Vent exo- polymerase. It counts as biochemical, Thermococcus species. Conditions: template NucT15 (18 possible).

Like-named read-outs stand apart in the source and are kept apart here.

Vent exo^− polymerase, sequence (P30317 with tags, fused parts or gaps D141A/DEL1082-1471/DEL495-1032/E143A): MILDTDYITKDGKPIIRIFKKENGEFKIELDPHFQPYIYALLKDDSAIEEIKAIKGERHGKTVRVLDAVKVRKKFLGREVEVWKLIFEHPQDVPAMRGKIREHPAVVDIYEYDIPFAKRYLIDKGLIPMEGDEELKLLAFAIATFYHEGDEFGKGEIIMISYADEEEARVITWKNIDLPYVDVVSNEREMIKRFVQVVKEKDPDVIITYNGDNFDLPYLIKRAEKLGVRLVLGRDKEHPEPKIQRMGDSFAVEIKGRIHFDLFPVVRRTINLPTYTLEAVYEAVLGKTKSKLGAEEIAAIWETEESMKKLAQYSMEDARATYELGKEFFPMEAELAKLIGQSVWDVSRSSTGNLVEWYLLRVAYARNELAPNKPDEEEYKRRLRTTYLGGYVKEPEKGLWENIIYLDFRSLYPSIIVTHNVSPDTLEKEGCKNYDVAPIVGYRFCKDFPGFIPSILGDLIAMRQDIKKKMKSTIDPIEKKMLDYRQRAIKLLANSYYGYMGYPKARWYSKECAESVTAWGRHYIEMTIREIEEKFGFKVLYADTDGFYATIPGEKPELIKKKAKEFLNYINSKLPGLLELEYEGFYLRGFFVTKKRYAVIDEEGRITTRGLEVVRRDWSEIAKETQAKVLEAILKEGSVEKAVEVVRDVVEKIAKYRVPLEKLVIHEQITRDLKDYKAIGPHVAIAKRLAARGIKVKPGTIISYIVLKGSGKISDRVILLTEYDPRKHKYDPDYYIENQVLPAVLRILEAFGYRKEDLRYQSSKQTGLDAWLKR

`Cc1c(CC(=O)NCCCCCC(=O)NC/C=C/c2cn([C@H]3C[C@H](O)[C@@H](COP(=O)(O)OP(=O)(O)OP(=O)(O)O)O3)c(=O)[nH]c2=O)c(=O)oc2cc(N)ccc12` [AMCA-6-dUTP]: the “elongation of Hex7c7Gd stretch with dUTP derivative” value (shortened to “elongation of Hex7c7Gd stretch”) in the assay with Tgo exo^− polymerase was “complete elongation”. Further, the “substrate activity” value in assay [1] is listed as “high substrate activity”.

Take `O=C(CCCCCNC(=O)CCCNC(=O)CCCC[C@@H]1SC[C@@H]2NC(=O)N[C@@H]21)NC/C=C/c1cn([C@H]2C[C@H](O)[C@@H](COP(=O)(O)OP(=O)(O)OP(=O)(O)O)O2)c(=O)[nH]c1=O` [Biotin-16-dUTP]: in the assay on Tgo exo^− polymerase, the “elongation of Hex7c7Gd stretch” value was “a high molecular weight product is formed”, the “insertions in neighbouring positions” value came out at 18 and the “product at lower polymerase concentration” value is “full length products were detectable”.

As for `CCCCC#Cc1cn([C@H]2C[C@H](O)[C@@H](COP(=O)(O)OP(=O)(O)OP(=O)(O)O)O2)c2ncnc(N)c12` [Hex^7c^7Ad, 7-Hexinyl-7-Desaza-dATP], the “adjacent positions into which derivative was incorporated” value in the assay with Tgo exo^− polymerase worked out at 15.

In the case of `CCCCC#Cc1cn([C@H]2C[C@H](O)[C@@H](COP(=O)(O)OP(=O)(O)OP(=O)(O)O)O2)c2nc(N)[nH]c(=O)c12` [Hex^7c^7Gd, 7-Hexinyl-7-desaza-dGTP], in the assay on Tgo exo^− polymerase, the consecutive incorporations entry is reported as “five” and the subsequent positions polymerized entry is recorded as “up to 21”.

In turn, Cy5-10-dUTP displayed a positions inserted at Vent exo^− polymerase of 13.

For the compound DIG-11-dUTP, in the assay with Tgo exo^− polymerase, the “product at lower polymerase concentration” value is given as “full length products were detectable” and the “substrate activity / incorporation” value is given as “high substrate activity”.

In the case of Fluorescein-12-dUTP, the “elongation of Hex7c7Gd stretch” value with Tgo exo^− polymerase (template NucT3, 50 μM each, 0,1 and 1 unit polymerase) is “complete elongation”. The “product at lower polymerase concentration” value in the assay with Tgo exo^− polymerase (template NucT15, 0,1 unit/reaction) is “full length products were detectable”.

Consider “Rhodamin-green-5(6)-carboxyamido-[5-(3-aminoallyl)-2′desoxy-uridin-5′-triphosphate] [Rhodamine-green-dUTP]”, for which, in the assay on Tgo exo^− polymerase, the “insertions in neighbouring positions” value is 15-16.

Turning to “Rhodamin-green-5(6)-carboxyamido-ε-aminocaproyl-[5-(3-aminoallyl)-2′desoxy-uridin-5′-triphosphate] [Rhodamine-green-X-dUTP]”, in the assay on Tgo exo^− polymerase, the “insertions in neighbouring positions” value is “up to 18”, the “major products (number of insertions)” value is given as 13-17 and the “substrate activity / incorporation” value is “very good substrate for the polymerase”.

Take TMR-6-dUTP [TM-Rhodamine-dUTP]: the positions inserted at Vent exo^− polymerase came out at 14.

The record behind these values is patent US20040214221A1, “High density labeling of DNA with modified or "chromophore" carrying nucleotides and DNA polymerases used” (priority 1999, published 2004).
